Data set [1] addresses T1, Steryl-sulfatase (Homo sapiens) (UniProt P08842).
T1 sequence (whole entry): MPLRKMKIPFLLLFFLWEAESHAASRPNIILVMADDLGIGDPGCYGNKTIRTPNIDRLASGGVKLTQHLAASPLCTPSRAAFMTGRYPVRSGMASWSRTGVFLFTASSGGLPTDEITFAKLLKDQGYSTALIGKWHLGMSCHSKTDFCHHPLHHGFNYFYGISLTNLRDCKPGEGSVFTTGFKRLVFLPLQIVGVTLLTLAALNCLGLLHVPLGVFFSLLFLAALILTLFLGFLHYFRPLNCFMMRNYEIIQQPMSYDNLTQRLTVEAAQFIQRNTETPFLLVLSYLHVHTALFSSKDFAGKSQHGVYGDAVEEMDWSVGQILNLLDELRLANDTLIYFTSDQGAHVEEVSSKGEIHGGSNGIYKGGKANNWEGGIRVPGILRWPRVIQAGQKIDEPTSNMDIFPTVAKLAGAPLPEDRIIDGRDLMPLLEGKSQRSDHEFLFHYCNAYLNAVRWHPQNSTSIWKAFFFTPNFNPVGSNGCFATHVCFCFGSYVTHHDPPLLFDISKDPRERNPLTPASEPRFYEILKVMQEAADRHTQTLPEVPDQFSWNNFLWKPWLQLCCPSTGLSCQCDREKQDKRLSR
As to conditions: 3.3 nM.
Description: In vitro inhibition of [6,7-3H]E1S binding to steroid sulfatase in JEG-3 human placental carcinoma cells at 3.3 nM

The target in data set [2] is T2, Aromatase (Homo sapiens, UniProt P11511).
T2 sequence (P11511 whole entry): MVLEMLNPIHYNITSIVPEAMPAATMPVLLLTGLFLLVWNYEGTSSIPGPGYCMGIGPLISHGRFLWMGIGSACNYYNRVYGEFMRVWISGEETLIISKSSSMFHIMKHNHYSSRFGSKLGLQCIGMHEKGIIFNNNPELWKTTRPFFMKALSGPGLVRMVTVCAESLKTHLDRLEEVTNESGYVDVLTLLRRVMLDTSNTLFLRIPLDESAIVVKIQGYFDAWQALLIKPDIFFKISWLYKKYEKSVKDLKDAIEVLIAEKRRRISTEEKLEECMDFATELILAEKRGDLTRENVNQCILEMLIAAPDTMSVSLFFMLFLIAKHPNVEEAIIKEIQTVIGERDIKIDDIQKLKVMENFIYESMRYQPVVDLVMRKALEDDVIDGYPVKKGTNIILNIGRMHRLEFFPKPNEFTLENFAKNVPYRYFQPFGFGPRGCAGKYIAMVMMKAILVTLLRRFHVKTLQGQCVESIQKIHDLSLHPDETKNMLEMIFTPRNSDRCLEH
Description: In vitro inhibition of [1-beta-3H]-androstenedione binding to Cytochrome P450 19A1 of JEG-3 human placental carcinoma cells

In data set [3] the target is T1, Steryl-sulfatase (Homo sapiens). Nature of the data set: In vitro inhibition of [6,7-3H]E1S binding to steroid sulfatase in JEG-3 human placental carcinoma cells; Not active.
Data set [4] addresses T2, Aromatase. Nature of the data set: Percent reduction in aromatase P450 19A1 binding inhibition after JEG-3 cell pretreatment at 1 uM (from 86.5+/-1.4% to 23+/-1%). The format is cell-based. Particulars: jeg-3, 1 µM.
The target in data set [5] is T1, Steryl-sulfatase (Homo sapiens). Particulars: JEG-3, 1 uM.

This note sets out measurements from ChEMBL document CHEMBL1136793, “First dual aromatase-steroid sulfatase inhibitors” (J Med Chem, 2003).

The source made the active and inactive calls. The rule behind the calls is not given here.

Broadly, the inhibition is the share of the control response that was lost under treatment. Read a low inhibition as a weak effect. For orientation: IC50 means the concentration that inhibits the measured activity by half. Higher therefore signals weaker potency.

Regarding `NS(=O)(=O)Oc1ccc2c3c(c(=O)oc2c1)CCCCC3`, in data set [1], the inhibition stood at 50%.
`N#Cc1ccc(N(Cc2ccc(Br)cc2)n2cnnc2)cc1` displayed an IC50 against Aromatase [2] of 500 pM. In addition, the NA entry in data set [3] was “inactive”.
Turning to `N#Cc1ccc(N(Cc2ccc(OS(N)(=O)=O)cc2)n2cnnc2)cc1`, at Aromatase [4], the Reduction is listed as 63.5%. In data set [5], the NS entry was “inactive”.
